In the supplement of paper PMC11208160:

assay: recombinant UMI read abundance after kanamycin selection (control-corrected) (log10(CPM+1)); higher = more efficient recombination; extreme values may be limits of the assay; sequences stand for … in AGTGCAGAGAAAATCGGCCAGTTTTCTCTGCCTGCAGTCCGCATGCCGTGGGACCCCTTGGGTTCTAACCTGTTGCCTAGATTTATGCAGCGGACTGCCTTTCTCCCAAAGTGATAAACCGG…AGGTTGGTTTCACT; site = the 11-nt donor
Description: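 Pooled E. coli donor-specificity screen for the IS621 bridge recombinase. Each library member carries a reprogrammed 11-nt donor and a full-length LE bridge RNA expressed in cis from the natural promoter, with a paired donor-binding loop (8-nt LDG + 4-nt RDG) and a target-binding loop fixed to T5. It is co-electroporated with a T5 target plasmid; recombinase is induced with 0.07 mM IPTG and recombinants are selected on kanamycin. UMIs are counted as CPM, averaged over two biological replicates and corrected by the unselected control. Molecule = full bridge RNA written as DNA, built from the T5 scaffold: LDG = donor specificity nt 1-8, RDG = reverse complement of nt 8-11.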
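Further: IS621 bridge recombinase in Escherichia coli cells against a fixed T5 target plasmid.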

Row | Sequence | recombinant UMI read abundance (log10)
1 | AAGCATACATGGACCGGTTTTCCCGGTAATCCGTATTTGAC (site AAGCATACTGT) | 2.88
2 | AAGCCCGCATGGACCGGTTTTCCCGGTAATCCGTATTTGGG (site AAGCACGCTCC) | 0.00486
3 | AAGCCCGCATGGACCGGTTTTCCCGGTAATCCGTATTTGGG (site AAGCCCGCTCC) | 0.0203
4 | AAGCCCGCATGGACCGGTTTTCCCGGTAATCCGTATTTGGG (site AAGCGCGCTCC) | 0.0392
5 | AAGCCCGCATGGACCGGTTTTCCCGGTAATCCGTATTTGGG (site AAGCTCGCTCC) | 0.0406
6 | AAGCCGGCATGGACCGGTTTTCCCGGTAATCCGTATTTGGC (site AAGCCGGCTGC) | 0
7 | AAGCGCTCATGGACCGGTTTTCCCGGTAATCCGTATTTGCG (site AAGCGCTCTCG) | 2.26
8 | AAGGAAACATGGACCGGTTTTCCCGGTAATCCGTATTTGCA (site AAGGAAACTTG) | 2.06
9 | AAGGAATCATGGACCGGTTTTCCCGGTAATCCGTATTTGCG (site AAGGAATCTCG) | 3.14
10 | AAGGAATCATGGACCGGTTTTCCCGGTAATCCGTATTTGCG (site CAGGAATCTCG) | 2.38
11 | AAGGAATCATGGACCGGTTTTCCCGGTAATCCGTATTTGCG (site GAGGAATCTCG) | 2.74
12 | AAGGAATCATGGACCGGTTTTCCCGGTAATCCGTATTTGCG (site TAGGAATCTCG) | 3.08
13 | AAGGACTCATGGACCGGTTTTCCCGGTAATCCGTATTTGTT (site AAGGACTCTAA) | 2.9
14 | AAGGAGCCATGGACCGGTTTTCCCGGTAATCCGTATTTGGG (site AAGGAGCCTCC) | 0.00843
15 | AAGGATGCATGGACCGGTTTTCCCGGTAATCCGTATTTGTG (site AAGGATGCTCA) | 2.3
16 | AAGGCGACATGGACCGGTTTTCCCGGTAATCCGTATTTGGA (site AAGGCGACTTC) | 0.0223
17 | AAGGGCCCATGGACCGGTTTTCCCGGTAATCCGTATTTGGC (site AAGGGCCCTGC) | 0.674
18 | AAGGGGTCATGGACCGGTTTTCCCGGTAATCCGTATTTGAT (site AAGGGGTCTAT) | 2.94
19 | AAGGGTTCATGGACCGGTTTTCCCGGTAATCCGTATTTGTC (site AAGGGTTCTGA) | 2.5

Row | Sequence | recombinant UMI read abundance (log10)
20 | AAGGTTGCATGGACCGGTTTTCCCGGTAATCCGTATTTGCA (site AAGGTTGCTTG) | 2.22
21 | AAGTAACCATGGACCGGTTTTCCCGGTAATCCGTATTTGGA (site AAGTAACCTTC) | 0.105
22 | AAGTACGCATGGACCGGTTTTCCCGGTAATCCGTATTTGGG (site AAGAACGCTCC) | 0.14
23 | AAGTACGCATGGACCGGTTTTCCCGGTAATCCGTATTTGGG (site AAGCACGCTCC) | 0.0289
24 | AAGTACGCATGGACCGGTTTTCCCGGTAATCCGTATTTGGG (site AAGGACGCTCC) | 0.492
25 | AAGTACGCATGGACCGGTTTTCCCGGTAATCCGTATTTGGG (site AAGTACGCTCC) | 0.423
26 | AAGTCCACATGGACCGGTTTTCCCGGTAATCCGTATTTGCT (site AAGTCCACTAG) | 1.56
27 | AAGTTACCATGGACCGGTTTTCCCGGTAATCCGTATTTGAC (site AAGTTACCTGT) | 0
28 | AATAGCCCATGGACCGGTTTTCCCGGTAATCCGTATTTGAC (site AATAGCCCTGT) | 1.07
29 | AATAGTGCATGGACCGGTTTTCCCGGTAATCCGTATTTGAG (site AATAGTGCTCT) | 1.4
30 | AATATAGCATGGACCGGTTTTCCCGGTAATCCGTATTTGCC (site AATATAGCTGG) | 1.53
31 | AATATGACATGGACCGGTTTTCCCGGTAATCCGTATTTGTG (site AATATGACTCA) | 0.774
32 | AATCACCCATGGACCGGTTTTCCCGGTAATCCGTATTTGCT (site AATCACCCTAG) | 0.532
33 | AATCATACATGGACCGGTTTTCCCGGTAATCCGTATTTGGT (site AATCATACTAC) | 0.556
34 | AATCTCACATGGACCGGTTTTCCCGGTAATCCGTATTTGCT (site AATCTCACTAG) | 1.64
35 | AATCTCCCATGGACCGGTTTTCCCGGTAATCCGTATTTGCT (site AATCTCCCTAG) | 0.736
36 | AATGAGTCATGGACCGGTTTTCCCGGTAATCCGTATTTGAC (site AATGAGTCTGT) | 3.25
37 | AATGAGTCATGGACCGGTTTTCCCGGTAATCCGTATTTGAC (site AATGCGTCTGT) | 0
38 | AATGAGTCATGGACCGGTTTTCCCGGTAATCCGTATTTGAC (site AATGGGTCTGT) | 0

Row | Sequence | recombinant UMI read abundance (log10)
39 | AATGAGTCATGGACCGGTTTTCCCGGTAATCCGTATTTGAC (site AATGTGTCTGT) | 0.822
40 | AATGAGTCATGGACCGGTTTTCCCGGTAATCCGTATTTGAT (site AATGAGTCTAT) | 2.52
41 | AATGATCCATGGACCGGTTTTCCCGGTAATCCGTATTTGCG (site AATGATCCTCG) | 0.677
42 | AATGGCCCATGGACCGGTTTTCCCGGTAATCCGTATTTGTA (site AATGGCCCTTA) | 0.0128
43 | AATGTAACATGGACCGGTTTTCCCGGTAATCCGTATTTGAT (site AATGTAACTAA) | 0.00583
44 | AATGTAACATGGACCGGTTTTCCCGGTAATCCGTATTTGAT (site AATGTAACTAC) | 0.00741
45 | AATGTAACATGGACCGGTTTTCCCGGTAATCCGTATTTGAT (site AATGTAACTAG) | 0.00602
46 | AATGTAACATGGACCGGTTTTCCCGGTAATCCGTATTTGAT (site AATGTAACTAT) | 2.15
47 | AATGTAACATGGACCGGTTTTCCCGGTAATCCGTATTTGCA (site AATGTAACTAG) | 0
48 | AATGTAACATGGACCGGTTTTCCCGGTAATCCGTATTTGCA (site AATGTAACTCG) | 0.0207
49 | AATGTAACATGGACCGGTTTTCCCGGTAATCCGTATTTGCA (site AATGTAACTGG) | 0
50 | AATGTAACATGGACCGGTTTTCCCGGTAATCCGTATTTGCA (site AATGTAACTTG) | 1.78
51 | AATGTAACATGGACCGGTTTTCCCGGTAATCCGTATTTGCC (site AATGTAACTAG) | 0
52 | AATGTAACATGGACCGGTTTTCCCGGTAATCCGTATTTGCC (site AATGTAACTCG) | 0
53 | AATGTAACATGGACCGGTTTTCCCGGTAATCCGTATTTGCC (site AATGTAACTGG) | 2.15
54 | AATGTAACATGGACCGGTTTTCCCGGTAATCCGTATTTGCC (site AATGTAACTTG) | 1.34
55 | AATGTAACATGGACCGGTTTTCCCGGTAATCCGTATTTGGT (site AATGTAACTAA) | 0.557
56 | AATGTAACATGGACCGGTTTTCCCGGTAATCCGTATTTGGT (site AATGTAACTAC) | 1.36
57 | AATGTAACATGGACCGGTTTTCCCGGTAATCCGTATTTGGT (site AATGTAACTAG) | 0
